These results are taken from patent EP0203736A1, “Antiviral compounds” (THE WELLCOME FOUNDATION LIMITED, priority 1985, dated 1986).

The subject of this experiment is herpes simplex. Nature of the experiment: In vivo potency against herpes simplex infection in intra-cerebrally infected mice (survival times, MRST). Further details: species or system CD 1 mice. The following applies: for MRST: mean reciprocal survival time; for MRST / Survival Times / survivors: 50 mg/kg twice daily for 4.5 days; for MRST / Survival Times: recorded over 14 days; for Survival Times / survivors: 10 animals; for Survival Times: figures = number of animals that died (on the day in parentheses); for survivors: 14 days, 1 mouse died within 24 hours of infection. As for the experimental part:
The compounds of Examples 1 and 2 were tested in vivo to determine their potency in vivo against herpes simplex infections. The compounds were tested in comparison with the 6-deoxy analogue of the compound of Example 1, namely 9-(3,4-dihydroxybutyI) guanine (DHBG). The following is description of the testing.
The compounds were tested in CD 1 mice infected with herpes simplex ICI cell culture stock having a titre of 1 x 10^5 plaque forming units (pfu)/ml and administered to the mice in a dose of 0.025ml by the intra-cerebral route.
The test compounds were prepared as aqueous suspensions or solutions, each compound being administered at a dose of 50 mg/kg in a volume of 0.1 ml, by either the oral or sub-cutaneous (s.c.) route, to a treatment group of animals. Each group contained 10 animals for each compound and for each route of administration.
Treatment of the animals commenced 2-3 hours after infection and continued twice daily for 4.5 days.
A group of 13 animals which were infected but untreated served as controls.
Survival times for the test animals were recorded over 14 days and expressed as mean reciprocol survival times (MRST).
The results shown in the following table were obtained in which the figures in the column headed "Survival Times" indicate the number of animals that died on the day indicated in parentheses.

For the compound `Nc1ncc2ncn(CCC(O)CO)c2n1` (stereo not drawn) [Example 1, 2-Amino-9-(3,4-dihydroxybutyl)-9H-purine], where the note is “oral”, the MRST is on record as 0.154 and the “Survival Times” value is 1(5), 4(6), 3(7), 1(7.5), 1(9). For the setting “s.c.”, the MRST was found to be 0.160 and the “Survival Times” value is given as 7(6), 3(7).
As for `Nc1ncc2ncn(COCC(O)CO)c2n1` (stereo not drawn) [Example 2], where the note is “oral”, the MRST is 0.059; the survivors was 5; the “Survival Times” value is 1(6), 1(7), 1(8), 1(10.5). For the setting “s.c.”, the MRST is reported as 0.054; the survivors was 5; the “Survival Times” value was 3(8), 1(9). The “antiviral effect in vivo against HSV” value (summary statement, particularly in comparison with DHBG) is given as “potent antiviral effect”.
In the case of `Nc1nc2c(ncn2CCC(O)CO)c(=O)[nH]1` (stereo not drawn) [DHBG, 9-(3,4-dihydroxybutyI) guanine, reference compound], under “oral”, the MRST was found to be 0.18 and the “Survival Times” value is recorded as 1(4.5), 3(5), 5(6), 1(7). Under “s.c.”, the MRST is given as 0.155 and the “Survival Times” value was 1(5), 3(6), 5(7), 1(7.5).
